Marks after values point to notes of the source that are not given here.
These molecules were tested on Hydrochloric acid-Ethanol-Induced Ulcers (assay: Hydrochloric acid-Ethanol-Induced Ulcers). Details: Rattus norvegicus, intraduodenal, 1 h, Table 2; dose 5 mg/kg intraduodenally one hour before hydrochloric acid - 60% ethanol; read-out: Inhibition ratio(%).
Type: in vivo, male Wister rats
Protocol: Experiments on Hydrochloric acid-Ethanol-Induced Ulcers, Aspirin-Induced Ulcers, Water-Immersion stress-Induced Ulcers, Shay's Ulcers and Serotonin-Induced Ulcers were carried out using male Wister rats weighing about 200g in groups of six. Experiments on Ischemia-Reperfusion -Induced Gastric Lesions were carried out using male SD rats weighing about 250g in groups of six. Other than for the tests on Ischemia-Reperfusion-Induced Gastric Lesions Models, the test compounds were prepared by mixing thoroughly with polyethyleneglycol and 0.5% sodium carboxymethyl cellulose solution and emulsifying vigorously. Activities against respective ulcer models were evaluated by an inhibiting ratio obtained by dividing the difference between the ulceration indexes of the non-administered group and the test compound group by the non-administered group.
To each rat which had been fasted for 24 hours was orally administered 0.5ml of a mixed solution of 150 mM hydrochloric acid - 60% ethanol per 100g of weight. Each rat was slaughtered after one hour, a length of ulcer formed at the fundus gland area of stomach was measured and ulceration index was calculated based on the length. The test compound was administered intraduodenally one hour or three hours before the administration of mixed solution of hydrochloric acid - 60% ethanol.

First: COC1C=C(C)C2(OC)CC(C)(C)C1O2 (centres unmarked) [AU155, 1,4-dimethoxy-2,6,6-trimethyl-8-oxabicyclo [3. 2. 1] oct-2-ene]
Second: COC12CC(C)(C)C(O1)C(OC(C)=O)C=C2C (centres unmarked) [AU158, 4-acetoxy-1-methoxy-2,6,6-trimethyl-8-oxabicyclo [3.2.1] oct-2-ene]
The inhibition in vivo at 5 mg/kg of the first is higher: 93% for the first, 33% for the second.

Compared with `COC12CC(C)(C)C(O1)C(OCc1ccccc1)C=C2C` (centres unmarked) [AU157, 1-methoxy-4-benzyloxy-2,6,6-trimethyl-8-oxabicyclo [3.2.1] oct-2-ene], `COC12CC(C)(C)C(OC(C)=O)C(C=C1C)O2` (centres unmarked) [AU159, 4-acetoxy-1-methoxy-3,3,7-trimethyl-8-oxabicyclo [3.2.1] oct-6-ene] is higher in inhibition in vivo at 5 mg/kg: 64% for the first, 94% for the second.

Same assay, conditions: Rattus norvegicus, intraduodenal, 1 h, Table 2; dose 10 mg/kg intraduodenally one hour before hydrochloric acid - 60% ethanol; read-out: Inhibition ratio(%)

First: CC(=O)OC1C=C(C)C(=O)CC(C)(C)C1OC(C)=O (centres unmarked) [AU102, 4,5-diacetoxy-2,6,6-trimethyl-2-cyclohepten-1-one]
Second: COC12CC(C)(C)C(OC(C)=O)C(C=C1C)O2 (centres unmarked) [AU159, 4-acetoxy-1-methoxy-3,3,7-trimethyl-8-oxabicyclo [3.2.1] oct-6-ene]
The inhibition in vivo at 10 mg/kg of the first is lower: 75% for the first, 83% for the second.

First: COC12CC(C)(C)C(O1)C(OC(C)=O)CC2C (stereo not drawn) [AU108A, 2,4-trans-1-methoxy-4-acetoxy-2,6,6-trimethyl-8-oxabicyclo [3.2.1] octane]
Second: COC1C=C(C)C2(OC)CC(C)(C)C1O2 (centres unmarked) [AU155, 1,4-dimethoxy-2,6,6-trimethyl-8-oxabicyclo [3. 2. 1] oct-2-ene]
The inhibition in vivo at 10 mg/kg of the first is lower: 75% for the first, 96% for the second.

First: COC12CC(C)(C)C(O)C(C=C1C)O2 (centres unmarked) [AU153, 1-methoxy-3,3,7-trimethyl-8-oxabicyclo [3.2.1] oct-6-en-4-ol]
Second: CC1=CC(OCc2ccccc2)C(O)C(C)(C)CC1=O (centres unmarked) [AU156, 4-benzyloxy-5-hydroxy-2,6,6-trimethyl-2-cyclohepten-1-one]
The inhibition in vivo at 10 mg/kg of the first is lower: 55% for the first, 97% for the second.

Same assay, conditions: Rattus norvegicus, intraduodenal, 1 h, Table 2; dose 20 mg/kg intraduodenally one hour before hydrochloric acid - 60% ethanol; read-out: Inhibition ratio(%)

`COC12CC(C)(C)C(O1)C(O)C=C2C` (centres unmarked) [AU152, 1-methoxy-2,6,6-trimethyl-8-oxabicyclo [3.2.1] oct-2-en-4-ol] gave an inhibition in vivo at 20 mg/kg of 87%.

Same assay, conditions: Rattus norvegicus, intraduodenal, 3 h, Table 1; dose 20 mg/kg intraduodenally three hours before hydrochloric acid - 60% ethanol; read-out: Inhibition ratio(%)

Going from `CO[C@H]1C[C@H](C)C(=O)CC(C)(C)C1OC(=O)c1ccccc1` (relative stereo) [AU123A, 2,4-trans-5-benzoyloxy-4-methoxy-2,6,6-trimethylcycloheptan-1-one] to `COC1CC(C)C(=O)CC(C)(C)C1OC(=O)c1ccccc1` (stereo not drawn) [AU123B, 2,4-cis-5-benzoyloxy-4-methoxy-2,6,6-trimethyl cycloheptan-1-one], the inhibition in vivo at 20 mg/kg falls from 34% to 25%.

Going from `CC(=O)OC1C=C(C)C(=O)CC(C)(C)C1OC(C)=O` (centres unmarked) [AU102, 4,5-diacetoxy-2,6,6-trimethyl-2-cyclohepten-1-one] to `CC(=O)OC1C(OC(=O)c2ccccc2)C=C(C)C(=O)CC1(C)C` (centres unmarked) [AU193, 5-acetoxy-4-benzoyloxy-2,6,6-trimethyl-2-cyclohepten-1-one], the inhibition in vivo at 20 mg/kg rises from 49% to 60%.

First: COC12CC(C)(C)C(O1)C(OC(C)=O)CC2C (stereo not drawn) [AU108A, 2,4-trans-1-methoxy-4-acetoxy-2,6,6-trimethyl-8-oxabicyclo [3.2.1] octane]
Second: COC12CC(C)(C)C(O1)C(=O)CC2C (centres unmarked) [AU163, 1-methoxy-2,6,6-trimethyl-8-oxabicyclo [3.2.1] octan-4-one]
The inhibition in vivo at 20 mg/kg of the first is higher: 55% for the first, 32% for the second.

Going from `COC1CC(C)(C)C(OC(C)=O)C(OC(C)=O)C=C1C` (centres unmarked) [AU112, 4,5-diacetoxy-1-methoxy-2,6,6-trimethyl-2-cycloheptene] to `COC1CC(C)(C)C(OC)C(OC)C=C1C` (centres unmarked) [AU113, 1,4,5-trimethoxy-2,6,6-trimethyl-2-cycloheptene], the inhibition in vivo at 20 mg/kg falls from 45% to 39%.

First: COC1CC(C)(C)C(OC(=O)c2ccccc2)C(O)C=C1C (centres unmarked) [AU115, 5-benzoyloxy-1-methoxy-2,6,6-trimethyl-2-cyclohepten-4-ol]
Second: CC1=CC(O)C(OC(=O)c2ccccc2)C(C)(C)CC1=O (centres unmarked) [AU183, 5-benzoyloxy-4-hydroxy-2,6,6-trimethyl-2-cyclohepten-1-one]
The inhibition in vivo at 20 mg/kg of the first is higher: 83% for the first, 73% for the second.

Compared with `COC1C=C(C)C(=O)CC(C)(C)C1OC(=O)c1ccccc1` (centres unmarked) [AU121, 5-benzoyloxy-4-methoxy-2,6,6-trimethyl-2-cyclohepten-1-one], `CC(=O)OC1C=C(C)C(=O)CC(C)(C)C1OC(=O)c1ccccc1` (centres unmarked) [AU189, 4-acetoxy-5-benzoyloxy-2,6,6-trimethyl-2-cyclohepten-1-one] is higher in inhibition in vivo at 20 mg/kg: 50% for the first, 63% for the second.

First: CC1=CC(O)C(OC(=O)c2ccccc2Cl)C(C)(C)CC1=O (centres unmarked) [AU127, 5-(2-chlorobenzoyloxy)-4-hydroxy-2,6,6-trimethyl-2-cyclohepten-1-one]
Second: CC1=CC(O)C(OC(=O)c2ccc(Cl)cc2)C(C)(C)CC1=O (centres unmarked) [AU128, 5-(4-chlorobenzoyloxy)-4-hydroxy-2,6,6-trimethyl-2-cyclohepten-1-one]
The inhibition in vivo at 20 mg/kg of the first is higher: 87% for the first, 53% for the second.

Going from `COc1ccc(C(=O)OC2C=C(C)C(=O)CC(C)(C)C2O)cc1OC` (centres unmarked) [AU133, 4-(3,4-dimethoxybenzoyloxy)-5-hydroxy-2,6,6-trimethyl-2-cyclohepten-1-one] to `COc1ccc(C(=O)OC2C=C(C)C(=O)CC(C)(C)C2O)cc1` (centres unmarked) [AU195, 5-hydroxy-4-(4-methoxybenzoyloxy)-2,6,6-trimethyl-2-cyclohepten-1-one], the inhibition in vivo at 20 mg/kg rises from 38% to 40%.

Going from `CC(C)=CCOC1CC(C)(C)C(O)C(OC(=O)c2ccccc2)C=C1C` (centres unmarked) [AU144, 4-benzoyloxy-1-(3-methyl-2-buten-1-yloxy)-2,6,6-trimethyl-2-cyclohepten-5-ol] to `CC1CC(O)C(OC(=O)c2ccccc2)C(C)(C)CC1=O` (stereo not drawn) [AU191, 2,4-cis-5-benzoyloxy-4-hydroxy-2,6,6-trimethyl cycloheptan-1-one], the inhibition in vivo at 20 mg/kg rises from 51% to 53%.

Going from `CC1=CC(=O)C2OC1(OC(=O)c1ccccc1)CC2(C)C` (centres unmarked) [AU168, 1-benzoyloxy-2,6,6-trimethyl-8-oxabicyclo [3.2.1] oct-2-en-4-one] to `CC(=O)OC1CC(C)C(=O)CC(C)(C)C1OC(=O)c1ccccc1` (stereo not drawn) [AU192, 2,4-cis-4-acetoxy-5-benzoyloxy-2,6,6-trimethylcycloheptan-1-one], the inhibition in vivo at 20 mg/kg rises from 46% to 49%.

Compared with `COc1ccc(COC2CC(C)C(=O)CC(C)(C)C2OC(C)=O)cc1` (stereo not drawn) [AU185, 2,4-cis-5-acetoxy-4-(4-methoxybenzyloxy)-2,6,6-trimethylcycloheptan-1-one], `COc1ccc(COC2CC(C)C(=O)CC(C)(C)C2OC(=O)c2ccccc2)cc1` (stereo not drawn) [AU187, 2,4-cis-5-benzoyloxy-4-(4-methoxybenzyloxy)-2,6,6-trimethylcycloheptan-1-one] is higher in inhibition in vivo at 20 mg/kg: 34% for the first, 35% for the second.

Compared with `CC(=O)OC1C(OC(=O)c2ccccc2)CC(C)C(=O)CC1(C)C` (stereo not drawn) [AU194, 2,4-cis-5-acetoxy-4-benzoyloxy-2,6,6-trimethylcycloheptan-1-one], `CC(=O)OC1C(OC(=O)c2cccc(Cl)c2)CC(C)C(=O)CC1(C)C` (stereo not drawn) [AU199, 2,4-cis-5-acetoxy-4-(3-chlorobenzoyloxy)-2,6,6-trimethylcycloheptan-1-one] is higher in inhibition in vivo at 20 mg/kg: 23% for the first, 29% for the second.

Compared with `CC(=O)OC1C(OC(=O)c2ccc(N)cc2)C=C(C)C(=O)CC1(C)C` (centres unmarked) [AU197, 5-acetoxy-4-(4-aminobenzoyloxy)-2,6,6-trimethyl-2-cyclohepten-1-one], `CC1=CC(O)C(OC(=O)c2ccc(N)cc2)C(C)(C)CC1=O` (centres unmarked) [AU216, 5-(4-aminobenzoyloxy)-4-hydroxy-2,6,6-trimethyl-2-cyclohepten-1-one] is lower in inhibition in vivo at 20 mg/kg: 44% for the first, 23% for the second.

Going from `CC1=CC(OC(=O)c2cccc([N+](=O)[O-])c2)C(O)C(C)(C)CC1=O` (centres unmarked) [AU200, 5-hydroxy-4-(3-nitrobenzoyloxy)-2,6,6-trimethyl-2-cyclohepten-1-one] to `CC1=CC(OC(=O)c2cccc(N)c2)C(O)C(C)(C)CC1=O` (centres unmarked) [AU210, 4-(3-aminobenzoyloxy)-5-hydroxy-2,6,6-trimethyl-2-cyclohepten-1-one], the inhibition in vivo at 20 mg/kg falls from 50% to 26%.

Compared with `CC1=CC(OC(=O)C=Cc2ccccc2)C(O)C(C)(C)CC1=O` (centres unmarked) [AU206, 4-cinnamoyloxy-5-hydroxy-2,6,6-trimethyl-2-cyclohepten-1-one], `CC(=O)OC1C(OC(=O)C=Cc2ccccc2)C=C(C)C(=O)CC1(C)C` (centres unmarked) [AU208, 5-acetoxy-4-cinnamoyloxy-2,6,6-trimethyl-2-cyclohepten-1-one] is lower in inhibition in vivo at 20 mg/kg: 72% for the first, 39% for the second.

First: CC(=O)OC1C=C(C)C(=O)CC(C)(C)C1OC(=O)C=Cc1ccccc1 (centres unmarked) [AU207, 4-acetoxy-5-cinnamoyloxy-2,6,6-trimethyl-2-cyclohepten-1-one]
Second: COC1C=C(C)C(=O)CC(C)(C)C1OC(=O)c1ccccc1C(=O)O (centres unmarked) [AU218, 5-(2-carboxybenzoyloxy)-4-methoxy-2,6,6-trimethyl-2-cyclohepten-1-one]
The inhibition in vivo at 20 mg/kg of the first is higher: 56% for the first, 34% for the second.

`CC1=CC(O)C(OC(=O)c2cccc(N)c2)C(C)(C)CC1=O` (centres unmarked) [AU209, 5-(3-aminobenzoyloxy)-4-hydroxy-2,6,6-trimethyl-2-cyclohepten-1-one] and `CC1=CC(O)C(OC(=O)c2ccc([N+](=O)[O-])cc2)C(C)(C)CC1=O` (centres unmarked) [AU211, 4-hydroxy-5-(4-nitrobenzoyloxy)-2,6,6-trimethyl-2-cyclohepten-1-one] are the same in inhibition in vivo at 20 mg/kg: 38% for the first, 38% for the second.

For `CC(=O)Oc1ccc(C(=O)OC2C=C(C)C(=O)CC(C)(C)C2O)cc1` (centres unmarked) [AU217, 4-(4-acetoxybenzoyloxy)-5-hydroxy-2,6,6-trimethyl-2-cyclohepten-1-one], the inhibition in vivo at 20 mg/kg was 48%.

Same assay, conditions: Table 1; dose 20 mg/kg intraduodenally three hours before hydrochloric acid - 60% ethanol; 20 mg/kg

With `COC12CC(C)(C)C(O1)C(O)CC2C` (stereo not drawn) [AU105A, 2,4-trans-1-methoxy-2,6,6-trimethyl-8-oxabicyclo [3.2.1] octan-4-ol] the “Inhibition ratio(%)” value was 44* %.

From EP0528699B1, “Saishin N derivatives, process for their preparation and anti-ulcer agents containing them” (TOKYO TANABE COMPANY LIMITED, priority 1991, dated 1993)
